Results taken from US20200101068A1, “Heteroaryl Derivatives as PARP Inhibitors” (Lupin Limited, priority 2015, published 2020).

Target: T1, PARP1 (Homo sapiens, UniProt P09874)
T1 construct: purchased BPS Bioscience
Test: PARP1 biochemical assay (BPS Bioscience kit, chemiluminescent)
Conditions: histone-coated plate, biotinylated NAD+, 60 min at 25° C., luminescence; read-out: PARP 1 inhibition IC50
Protocol: Example 16: PARP1 Biochemical Assay
The assay was performed using BPS Bioscience kit. The 96-well strip plate was coated with 50 μl of histone mixture and incubated at 4° C. overnight. The next day, the wells were blocked by adding 100 μl of blocking buffer. The plate was washed and 25 μl of appropriate concentration of PARP1 (25-75 ng/well) was added in all of the Test and Positive control wells. In the Negative control wells, the enzyme was replaced with 25 μl of water. 5 μl each of 10× PARP assay buffer and activated DNA was added in all the wells (Test, Positive and Negative control wells). 10× concentration of the test compounds were prepared and 5 μl test compounds were added to the respective wells. The reaction volume was made up to 45 μl by adding water to all of the wells. 5 μl of 10× PARP assay mixture containing biotinilated NAD^+ was added in each well and the plate was incubated at ambient temperature (25° C.) for 60 min. After washing the plate 50 μl of Streptavidin-HRP was added in each well, the plate was incubated at RT for 30 min. The plate was washed and the luminescence was read in PHERAStar plate reader after adding 100 μl of chemiluminescent substrate.
PARP inhibition was calculated using the following formula:
% PARP inhibition=100−[(RLU test compound treated sample−RLU negative control)/(RLU Positive control−RLU negative control)×100]
IC50 values were calculated by plotting % inhibition against the respective concentrations of test compounds using GraphPad Prism 5.

T1 sequence (P09874 whole entry): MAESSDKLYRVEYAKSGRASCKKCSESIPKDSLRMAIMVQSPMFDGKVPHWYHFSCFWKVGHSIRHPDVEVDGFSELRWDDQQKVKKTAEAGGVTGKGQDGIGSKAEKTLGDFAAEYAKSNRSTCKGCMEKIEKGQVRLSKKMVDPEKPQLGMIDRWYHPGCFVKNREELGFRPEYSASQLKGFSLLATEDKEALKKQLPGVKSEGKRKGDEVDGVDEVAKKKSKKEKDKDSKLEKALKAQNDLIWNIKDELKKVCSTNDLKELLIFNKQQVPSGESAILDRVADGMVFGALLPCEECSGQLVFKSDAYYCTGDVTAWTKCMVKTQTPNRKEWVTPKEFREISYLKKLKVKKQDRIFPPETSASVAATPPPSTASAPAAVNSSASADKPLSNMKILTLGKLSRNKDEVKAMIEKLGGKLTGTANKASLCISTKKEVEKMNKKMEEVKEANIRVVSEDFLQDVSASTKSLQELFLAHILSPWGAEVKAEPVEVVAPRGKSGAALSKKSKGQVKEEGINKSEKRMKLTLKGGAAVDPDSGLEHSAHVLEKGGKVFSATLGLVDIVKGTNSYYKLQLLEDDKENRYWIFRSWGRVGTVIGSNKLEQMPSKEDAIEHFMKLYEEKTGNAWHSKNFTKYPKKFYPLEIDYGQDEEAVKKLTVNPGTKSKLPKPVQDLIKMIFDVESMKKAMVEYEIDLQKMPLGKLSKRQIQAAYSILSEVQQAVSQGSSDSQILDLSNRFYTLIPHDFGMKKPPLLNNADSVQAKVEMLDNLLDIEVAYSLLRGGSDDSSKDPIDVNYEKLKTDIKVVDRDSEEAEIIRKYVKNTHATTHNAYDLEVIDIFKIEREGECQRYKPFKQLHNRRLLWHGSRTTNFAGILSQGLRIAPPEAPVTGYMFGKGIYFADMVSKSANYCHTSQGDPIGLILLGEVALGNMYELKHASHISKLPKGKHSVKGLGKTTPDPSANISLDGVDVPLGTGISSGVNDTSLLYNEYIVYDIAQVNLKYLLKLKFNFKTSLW

Structure (SMILES)	IC50 [nM]
O=c1[nH]c(C2=C[C@H](N3CCN(c4ccc(F)cc4)CC3)CC2)cc2ncccc12 [Compound 22, (R)-7-(3-(4-(4-fluorophenyl)piperazin-1-yl)cyclopent-1-en-1-yl)-1,6-naphthyridin-5(6H)-one]	0.5 to 5
N#Cc1ccc(N2CCN([C@H]3C=C(c4cc5sccc5c(=O)[nH]4)CC3)CC2)nc1 [Compound 50, (R)-6-(4-(3-(4-oxo-4,5-dihydrothieno[3,2-c]pyridin-6-yl)cyclopent-2-en-1-yl)piperazin-1-yl)nicotinonitrile]	0.5 to 5
Cc1ccc(N2CCN([C@H]3C=C(c4cc5ncccc5c(=O)[nH]4)CC3)CC2)cc1 [Compound 26, (R)-7-(3-(4-(p-tolyl)piperazin-1-yl)cyclopent-1-en-1-yl)-1,6-naphthyridin-5(6H)-one]	0.5 to 5
CC(=O)c1ccc(N2CCN([C@H]3C=C(c4cc5ncccc5c(=O)[nH]4)CC3)CC2)cc1 [Compound 28, (R)-7-(3-(4-(4-acetylphenyl)piperazin-1-yl)cyclopent-1-en-1-yl)-1,6-naphthyridin-5(6H)-one]	0.5 to 5
N#Cc1ccc(N2CCN([C@H]3C=C(c4cc5ncc(F)cc5c(=O)[nH]4)CC3)CC2)cc1 [Compound 2, (R)-4-(4-(3-(3-fluoro-5-oxo-5,6-dihydro-1,6-naphthyridin-7-yl)cyclopent-2-en-1-yl)piperazin-1-yl)benzonitrile]	0.5 to 5
N#Cc1ccc(N2CCN([C@@H]3C=C(c4cc5ncccc5c(=O)[nH]4)CC3)CC2)cc1 [Compound 4, (S)-4-(4-(3-(5-oxo-5,6-dihydro-1,6-naphthyridin-7-yl)cyclopent-2-en-1-yl)piperazin-1-yl)benzonitrile]	5.1 to 50
CNC(=O)c1ccc(N2CCN([C@H]3C=C(c4cc5ncccc5c(=O)[nH]4)CC3)CC2)cc1 [Compound 18, (R)—N-methyl-4-(4-(3-(5-oxo-5,6-dihydro-1,6-naphthyridin-7-yl)cyclopent-2-en-1-yl)piperazin-1-yl)benzamide]	0.5 to 5
O=c1[nH]c(C2=C[C@H](N3CCN(c4ccccc4)CC3)CC2)cc2sccc12 [Compound 48, (R)-6-(3-(4-phenylpiperazin-1-yl)cyclopent-1-en-1-yl)thieno[3,2-c]pyridin-4(5H)-one]	0.5 to 5

Further lines, results first:

IC50 [nM]	Structure (SMILES)
0.5 to 5	N#Cc1ccc(N2CCN([C@H]3C=C(c4cc5ncc(N)cc5c(=O)[nH]4)CC3)CC2)cc1 [Compound 7, (R)-4-(4-(3-(3-amino-5-oxo-5,6-dihydro-1,6-naphthyridin-7-yl)cyclopent-2-en-1-yl)piperazin-1-yl)benzonitrile]
0.5 to 5	N#Cc1ccc(N2CCN([C@H]3C=C(c4cc5cnccc5c(=O)[nH]4)CC3)CC2)cc1 [Compound 36, (R)-4-(4-(3-(1-oxo-1,2-dihydro-2,6-naphthyridin-3-yl)cyclopent-2-en-1-yl)piperazin-1-yl)benzonitrile]
0.5 to 5	N#Cc1ccc(N2CCN([C@H]3C=C(c4cc5ncsc5c(=O)[nH]4)CC3)CC2)cc1 [Compound 43, (R)-4-(4-(3-(4-oxo-4,5-dihydrothiazolo[5,4-c]pyridin-6-yl)cyclopent-2-en-1-yl)piperazin-1-yl)benzonitrile]
0.5 to 5	O=C1CCc2cc(N3CCN([C@H]4C=C(c5cc6ncccc6c(=O)[nH]5)CC4)CC3)ccc21 [Compound 29, (R)-7-(3-(4-(1-oxo-2,3-dihydro-1H-inden-5-yl)piperazin-1-yl)cyclopent-1-en-1-yl)-1,6-naphthyridin-5(6H)-one]
0.5 to 5	N#Cc1ccc(N2CCN([C@H]3C=C(c4cc5ncsc5c(=O)[nH]4)CC3)CC2)c(F)c1 [Compound 52, (R)-3-fluoro-4-(4-(3-(4-oxo-4,5-dihydrothiazolo[5,4-c]pyridin-6-yl)cyclopent-2-en-1-yl)piperazin-1-yl)benzonitrile]
0.5 to 5	Cc1ccc2c(=O)[nH]c(C3=C[C@H](N4CCN(c5ccc(C#N)cc5)CC4)CC3)cc2n1 [Compound 6, (R)-4-(4-(3-(2-methyl-5-oxo-5,6-dihydro-1,6-naphthyridin-7-yl)cyclopent-2-en-1-yl)piperazin-1-yl)benzonitrile]
